Where two headings read alike, the source gives them in different places. Where a SMILES comes first, the peptide text is derived from it. The star is where a group is joined. Palmitoyl = CCCCCCCCCCCCCCCC(=O)*
Experiments:
Assay type in all cases: cell-based
[1] = tested on: LP40-V14 pseudovirus (HIV-1 NL4-3 Env mutant); conditions: for IC50: LP40-V14 (Env selected at LP-40 200 µM), TZM-bl cells, 48 h, luciferase, mean ± SD, triplicate, repeated three times
Method: (§1) To simulate the sequence changes of viral resistance genes under different drug concentration pressures, we constructed the Env genes under different drug concentration pressures in the PCDNA3.1 vector and obtained a series of mutations. […] T20-V 6~12, T20-V 13~14, and T 20-V 15~18 were constructed at concentrations of 200 µM (P21), 400 µM (P24), and 2000 µM (P32), respectively. Similarly, the LP-40 pressure concentrations were 0.3 µM, 8 µM, 20 µM, and 200 µM, respectively, and the constructs were numbered LP40-V 1~5, LP40-V 6~8, LP40-V 9~11, and LP40-V 12~15. Resistance mutations will cause varying levels of damage to the function of the pseudoviral envelope proteins. Here, we explored how serial mutations affect the function of viral envelope proteins. Based on this problem, we performed a single round of quantitative P24-infection experiments, packaging the pseudovirus with a previously constructed series of mutant plasmids. We compared the invasion ability of the HIV-1 wild-type and mutant pseudoviruses toward target cells under the same P24 content (using the invasion capacity of each subtype as 100%).
(§2) The infectivity of HIV Env mutants and the inhibitory activities of membrane fusion inhibitors on mutants in TZM-bl cells were measured using a single-cycle infection assay as described previously. Briefly, the HIV pseudovirus was packed using an Env-coding plasmid, and pSG3ΔEnv was co-transfected into HEK293T cells. pSG3ΔEnv encodes an Env-defective, luciferase-expressing HIV-1 genome. After the pseudoviruses were harvested and filtrated, the amount of pseudoviruses was fixed via P24 antigen, and their infectivity was determined in TZM-bl cells. In order to measure the inhibitory activities of the inhibitors, inhibitors diluted serially 3-fold were mixed with an equal volume of pseudoviruses, and then 100 µL 1 × 10^5/mL TZM-bl cells were added to the mixture and incubated at 37 °C with 5% CO2 for 48 h. After that, TZM-bl cells were lysed using reporter lysis buffer, and IC50 values were calculated according to luciferase activity measured by luciferase assay reagents and a luminescence counter (Promega, Madison, WI, USA).

[2] = tested on: LP40-V9 pseudovirus (HIV-1 NL4-3 Env mutant); conditions: for IC50: LP40-V9 (Env selected at LP-40 20 µM), TZM-bl cells, 48 h, luciferase, mean ± SD, triplicate, repeated three times
Method: as §1, §2

[3] = tested on: T20-V17 pseudovirus (HIV-1 NL4-3 Env mutant); conditions: for IC50: T20-V17 (Env selected at T20 2000 µM, P32), TZM-bl cells, 48 h, luciferase, mean ± SD, triplicate, repeated three times
Method: as §1, §2

[4] = tested on: T20-V18 pseudovirus (HIV-1 NL4-3 Env mutant); conditions: for IC50: T20-V18 (Env selected at T20 2000 µM, P32), TZM-bl cells, 48 h, luciferase, mean ± SD, triplicate, repeated three times
Method: as §1, §2

[5] = tested on: T20-V7 pseudovirus (HIV-1 NL4-3 Env mutant); conditions: for IC50: T20-V7 (Env selected at T20 200 µM, P21), TZM-bl cells, 48 h, luciferase, mean ± SD, triplicate, repeated three times
Method: as §1, §2

[6] = tested on: T20-V8 pseudovirus (HIV-1 NL4-3 Env mutant); conditions: T20-V8 (Env selected at T20 200 µM, P21); TZM-bl cells, 48 h, luciferase; mean ± SD, triplicate, repeated three times
Method: as §1, §2

[7] = tested on: HIV-1 NL4-3 gp41 L33S/I37T pseudovirus; conditions: Table 3; for IC50: L33S/I37T, TZM-bl cells, 48 h, luciferase, means, triplicate, repeated three times
Method: (§3) We selected LP-40-induced drug resistance typical point mutations and combination mutation pseudoviruses to evaluate the current representative membrane fusion inhibitors.
as §2

[8] = tested on: HIV-1 NL4-3 gp41 L33S/V38A/N42T pseudovirus; conditions: Table 3; for IC50: L33S/V38A/N42T, TZM-bl cells, 48 h, luciferase, means, triplicate, repeated three times
Method: as §3, §2

[9] = tested on: HIV-1 NL4-3 gp41 NDQEEDYN pseudovirus; conditions: Table 3; for IC50: NDQEEDYN (E109N, N113D, E119Q, D121E, N125E, S129D, H132Y, S133N), TZM-bl cells, 48 h, luciferase, means, triplicate, repeated three times
Method: as §3, §2

[10] = tested on: HIV-1 NL4-3 gp41 NDQEEDYN/L33S/I37T pseudovirus; conditions: Table 3; for IC50: NDQEEDYN/L33S/I37T, TZM-bl cells, 48 h, luciferase, means, triplicate, repeated three times
Method: as §3, §2

[11] = tested on: HIV-1 NL4-3 gp41 NDQEEDYN/L33S/V38A/N42T pseudovirus; conditions: Table 3; for IC50: NDQEEDYN/L33S/V38A/N42T, TZM-bl cells, 48 h, luciferase, means, triplicate, repeated three times
Method: as §3, §2

[12] = tested on: HIV-1 NL4-3 gp41 V38A/N42T pseudovirus; conditions: Table 3; for IC50: V38A/N42T, TZM-bl cells, 48 h, luciferase, means, triplicate, repeated three times
Method: as §3, §2

[13] = tested on: T20- and LP40-resistant mutant pseudoviruses of HIV-1 NL4-3; conditions: for Largest decrease in susceptibility among LP-40-resistant strains / Largest decrease in susceptibility among T20-resistant strains / Decrease in sensitivity, range over strains / Decrease in sensitivity, range over mutants / Decrease in sensitivity: relative to WT
Method: as §1
The frequency of the T20-V8 strain was 1/12. From sequence alignment, except for the L33S, which appeared in all the sequences, the new mutation site of D36G/V38A/N42T was also introduced.
Among them, LP-40-inhibited LP40-V11 reached 3.3 µM. When the concentration of LP-40 rose to 200 µM, I37T disappeared, and L33S/D36G/V38A/N42T/I69V became the main mutation point.
The mutation G20V only appeared in T20-induced drug resistance, and the frequency was low. […] This mutation point N126K appeared in LP-40-induced drug resistance with a high frequency.
as §2

[14] = six point-mutant pseudoviruses L33S, I37T, V38A, V38T, N42T, N43S
[15] = six point-mutant pseudoviruses L33S, I37T, V38A, V38T, N42T, N43S, read-out: IC50, range over mutants

Molecule | IC50 [1] [µM] | IC50 [2] [µM] | IC50 [3] [µM] | IC50 [4] [µM] | IC50 [5] [µM] | IC50 [6] [µM] | IC50 [7] [µM] | IC50 [8] [µM] | IC50 [9] [µM] | IC50 [10] [µM] | IC50 [11] [µM] | IC50 [12] [µM] | Largest decrease in susceptibility among LP-40-resistant strains [13] | Largest decrease in susceptibility among T20-resistant strains [13] | Decrease in sensitivity, range over mutants [13, 14] | IC50 [13, 15] [µM] | also measured
CCCCCCCCCCCCCCCC(=O)NCCCC[C@H](NC(=O)[C@H](CC(=O)O)NC(=O)[C@H](CC(C)C)NC(=O)[C@H](CCC(=O)O)NC(=O)[C@H](CC(C)C)NC(=O)[C@H](CC(C)C)NC(=O)[C@H](CCC(=O)O)NC(=O)[C@H](CCC(N)=O)NC(=O)[C@H](CCC(=O)O)NC(=O)[C@H](CC(N)=O)NC(=O)[C@H](CCCCN)NC(=O)[C@H](CCC(=O)O)NC(=O)[C@H](CCC(N)=O)NC(=O)[C@H](CCC(N)=O)NC(=O)[C@H](CC(N)=O)NC(=O)[C@H](CCC(N)=O)NC(=O)[C@H](CO)NC(=O)[C@H](CCC(=O)O)NC(=O)[C@H](CCC(=O)O)NC(=O)[C@@H](NC(=O)[C@H](CC(C)C)NC(=O)[C@H](CO)NC(=O)[C@H](Cc1c[nH]cn1)NC(=O)[C@@H](NC(=O)[C@H](CC(C)C)NC(=O)[C@H](CO)NC(=O)[C@@H](NC(=O)[C@H](Cc1ccc(O)cc1)NC(C)=O)[C@@H](C)O)[C@@H](C)CC)[C@@H](C)CC)C(N)=O [LP-40] (Ac-YTSLIHSLIEESQNQQEKNEQELLELDK(Palmitoyl)-NH2) | > 6.25 | 2.89 ± 0.431 | 5.17 ± 1.02 | > 6.25 | 2.73 ± 0.212 | > 6.25 | 2.98 | 4.99 | 0.1 | 3.28 | > 6.25 | 4.07 | over 227 fold | 227 fold | 6–111 fold | 0.2 to 3.5 | Fold change in IC50 ([1]; LP40-V14 relative to WT NL4-3, Table 1): >227.43 fold; Fold change in IC50 ([2]; LP40-V9 relative to WT NL4-3, Table 1): 97.22 fold; Fold change in IC50 ([3]; T20-V17 relative to WT NL4-3, Table 1): 174.12 fold; Fold change in IC50 ([4]; T20-V18 relative to WT NL4-3, Table 1): >227.43 fold; Fold change in IC50 ([5]; T20-V7 relative to WT NL4-3, Table 1): 91.82 fold; Fold change in IC50 ([7]; L33S/I37T relative to WT NL4-3): 109.04 fold; Fold change in IC50 ([8]; L33S/V38A/N42T relative to WT NL4-3): 182.67 fold; Fold change in IC50 ([9]; NDQEEDYN relative to WT NL4-3): 3.67 fold; Fold change in IC50 ([10]; NDQEEDYN/L33S/I37T relative to WT NL4-3): 120.00 fold; Fold change in IC50 ([11]; NDQEEDYN/L33S/V38A/N42T relative to WT NL4-3): >228.77 fold; Fold change in IC50 ([12]; V38A/N42T relative to WT NL4-3): 149.15 fold; Decrease in sensitivity, range over strains ([13]; first group of LP-40-resistant strains (LP40-V1, LP40-V2)): 1.5–12.6 fold; Decrease in sensitivity ([13]; strains induced at LP-40 200 µM): over 227 fold; Decrease in sensitivity ([13]; viral strains induced at LP-40 8 µM and 20 µM): more than 92 fold; IC50 ([13]; viral strains induced at LP-40 8 µM and 20 µM, read-out: IC50, range over strains): 2.8 to 3.3 µM
Enfuvirtide | 4.91 ± 2 | 1.27 ± 0.315 | 2.89 ± 0.882 | 6.15 ± 0.475 | 2.81 ± 0.458 | 5.28 ± 1.1 | 5.85 | 4.92 | 0.0625 | 3.79 | 4.78 | 3.35 | 107 fold | up to 112 fold | 6–51 fold | 0.41 to 3.4 | Decrease in sensitivity, range over strains ([13]; strains induced at T20 2000 µM): 32- to 112 fold; Decrease in sensitivity ([13]; viral strains induced at T20 200 µM): more than 50 fold; IC50 ([13]; viral strains induced at T20 200 µM, read-out: IC50, range over strains): 2.8 to 5.3 µM; Decrease in sensitivity, range over strains ([13]; virus strain induced at T20 12 µM): one- to two

Source: PMC9223764, “In Vitro Selection and Characterization of HIV-1 Variants with Increased Resistance to LP-40, Enfuvirtide-Based Lipopeptide Inhibitor” (International Journal of Molecular Sciences, 2022)
